Measured values reported in patent publication US11478451B1, “Macrocyclic chlorine substituted indole derivatives” (Bayer Aktiengesellschaft, priority 2017, dated 2022).
Where a name gives a salt, the structure may show the parent alone.

Legend:
[1] = test system: SUDHL5 cells; experiment: Antiproliferation assay (CellTiter-Glo, 72 h), SUDHL5; format: cell-based; conditions: IC50, median; SUDHL5, 72 h; read-out: Antiproli SUDHL5 [M] (median)
Method in brief: (§1)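 Cells plated in treatment plates plus a day 0 reference plate; incubated 72 h at 37 °C; CellTiter-Glo added, 10 min incubation, luminescence read; day 0 plate read at time zero.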

[2] = test system: SUDHL10 cells; experiment: Antiproliferation assay (CellTiter-Glo, 72 h), SUDHL10; format: cell-based; conditions: IC50, median; SUDHL10, 72 h; read-out: Antiproli SUDHL10 [M] (median)
Procedure: (§2) Assessment of the Anti-Proliferative Effect of Compounds in Different Cell Lines
(§3) The impact of compounds on the proliferation of different cell lines was assessed using the CellTiter-Glo® Luminescent Cell Viability reagent from Promega (G7573).
(§4) In parallel, cells were plated in a reference (day 0) plate for time zero determination.
(§5) Rim wells were excluded. The cells were incubated for 72 h hours in a humidified incubator at 37° C. The day 0 plate was measured by adding 30 μL/well of CTG solution (CellTiter-Glo® Luminescent Cell Viability reagent, Promega G7573) to time zero wells in the reference plate followed by a 10 minutes incubation and luminescence reading at 0.1 ms. using the PHERAstar FS microplate reader (BMG Labtech).
(§6) After 72 h incubation, the treated plates were measured in the same way as the day 0 plate mentioned above.

[3] = test system: MV-4-11 cells; experiment: Antiproliferation assay (CellTiter-Glo, 72 h), MV-4-11; format: cell-based; conditions: IC50, median; MV-4-11, 72 h; read-out: Antiproli MV-4-11 [M] median
Method in brief: as §1

[4] = test system: AMO-1 cells; experiment: Antiproliferation assay (CellTiter-Glo, 72 h), AMO-1; format: cell-based; conditions: IC50, median; AMO-1, 72 h; read-out: Antiproli AMO-1 [M] median
Method in brief: as §1

[5] = test system: HMC-1-8 cells; experiment: Antiproliferation assay (CellTiter-Glo, 72 h), HMC-1-8; format: cell-based; conditions: IC50, median; HMC-1-8, 72 h; read-out: Antiproli HMC-1-8 [M] median
Method in brief: as §1

[6] = test system: SK-BR-3 cells; experiment: Antiproliferation assay (CellTiter-Glo, 72 h), SK-BR-3; format: cell-based; conditions: IC50, median; SK-BR-3, 72 h; read-out: Antiproli SK-BR-3 [M] median
Procedure: as §2, §3, §4, §5, §6

[7] = test system: T47D cells; experiment: Antiproliferation assay (CellTiter-Glo, 72 h), T47D; format: cell-based; conditions: IC50, median, T47D (head printed T4713), read-out: Antiproli T4713 [M] median
Procedure: as §2, §3, §4, §5, §6

[8] = test system: A2058 cells; experiment: Antiproliferation assay (CellTiter-Glo, 72 h), A2058; format: cell-based; conditions: IC50, median; A2058, 72 h; read-out: Antiproli A2058 [M] median
Procedure: as §2, §3, §4, §5, §6

[9] = test system: KYSE-180 cells; experiment: Antiproliferation assay (CellTiter-Glo, 72 h), KYSE-180; format: cell-based; conditions: IC50, median; KYSE-180, 72 h; read-out: Antiproli KYSE-180 [M] median
Procedure: as §2, §3, §4, §5, §6

[10] = test system: SNU-389 cells; experiment: Antiproliferation assay (CellTiter-Glo, 72 h), SNU-389; format: cell-based; conditions: IC50, median; SNU-389, 72 h; read-out: Antiproli SNU-389 [M] median
Method in brief: as §1

[11] = test system: DMS-114 cells; experiment: Antiproliferation assay (CellTiter-Glo, 72 h), DMS-114; format: cell-based; conditions: IC50, median; DMS-114, 72 h; read-out: Antiproli DMS-114 [M] median
Method in brief: as §1

[12] = test system: SUDHL10 cells; experiment: Induction of cytotoxicity (CellTiter-Glo, 5 h), SUDHL10; conditions: read-out: Cytotox SUDHL10 [M] (median); IC50, median; SUDHL10, 5 h
[13] = molecular target: MCL-1 (Homo sapiens (Human), UniProt Q07820, K194A/K197A/R201A); experiment: Protein-compound interaction assay (SPR assay); format: binding; conditions: equilibrium dissociation constant, geometric mean, SPR 25° C.
Excerpt: Protein-Compound Interaction Assay (SPR Assay)
The ability of the compounds described in this invention to bind to MCL-1 may be determined using surface plasmon resonance (SPR). This allows for the quantification of binding in terms of the equilibrium dissociation constant (KD [M]), as well as association and dissociation rate constants (kon [1/M 1/s] and koff [1/s], respectively). The measurements may be performed using Biacore® T200 or Biacore® S200 instruments (GE Healthcare).
Subsequently, a solution of 1 M ethanolamine-HCl (GE Healthcare) was injected to block unreacted groups, resulting in approximately 400-2500 response units (RU) of immobilized protein. A reference surface was generated by treatment with NHS-EDC and ethanolamine-HCl.
The double-referenced sensorgrams were fit to a simple reversible Langmuir 1:1 reaction mechanism as implemented in the Biacore® T200 and S200 evaluation software (T200 evaluation software version 2.0 and S200 evaluation software version 1.0, GE Healthcare).

Chain of MCL-1 (Q07820 whole entry K194A/K197A/R201A, looked up): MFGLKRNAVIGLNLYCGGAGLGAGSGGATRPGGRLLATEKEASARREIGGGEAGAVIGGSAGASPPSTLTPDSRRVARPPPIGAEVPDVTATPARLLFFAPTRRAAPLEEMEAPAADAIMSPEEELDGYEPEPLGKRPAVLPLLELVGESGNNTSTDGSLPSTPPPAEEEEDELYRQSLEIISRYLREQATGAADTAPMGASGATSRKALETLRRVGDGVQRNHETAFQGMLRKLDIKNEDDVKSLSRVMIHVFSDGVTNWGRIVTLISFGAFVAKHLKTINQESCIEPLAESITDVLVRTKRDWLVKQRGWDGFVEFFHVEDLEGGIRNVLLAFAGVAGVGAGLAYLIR

Cc1c2c(nn1C)CN(C)CCCCn1c(C(=O)O)c(CCCOc3cccc4ccccc34)c3ccc(Cl)c-2c31 (single isomer, unassigned; enantiomer 1) [Example 12, (+)-4-chloro-2,3,14-trimethyl-7-[3-(naphthalen-1-yloxy)propyl]-10,11,12,13,14,15-hexahydro-2H-pyrazolo[3′,4′:8,9][1,6]diazacycloundecino[10,11,1-hi]indole-8-carboxylic acid-N-ethylethanamine salt (Enantiomer 1)]
IC50 [1]: 1.7e-07 M
IC50 [2]: 1.4e-07 M
IC50 [3]: 4.41e-07 M
IC50 [4]: 3.3e-07 M
IC50 [5]: 1.6e-06 M
IC50 [6]: 6.67e-07 M
IC50 [7]: 7.1e-06 M
IC50 [8]: 4.83e-06 M
IC50 [9]: 3.79e-06 M
IC50 [10]: 7.22e-07 M
IC50 [11]: 1.32e-06 M
IC50 [12]: 1.4e-07 M

Cc1c2c(nn1C)CN(C)CCCCn1c(C(=O)O)c(CCCOc3cccc4cc(F)ccc34)c3ccc(Cl)c-2c31 (single isomer, unassigned; enantiomer 1) [Example 31, (+)-4-chloro-7-{3-[(6-fluoronaphthalen-1-yl)oxy]propyl}-2,3,14-trimethyl-10,11,12,13,14,15-hexahydro-2H-pyrazolo[3′,4′:8,9][1,6]diazacycloundecino[10,11,1-hi]indole-8-carboxylic acid-N-ethylethanamine salt (Enantiomer 1)]
IC50 [3]: 2.75e-07 M
IC50 [4]: 1.7e-07 M
IC50 [5]: 1.9e-06 M
Kd [13]: 0.43 nM
